“And” between values parts separate entries of the source, which are not always exact repeats. Equal values may be shown once.
Experiments:
[1] = tested on: malignant skin diseases and solid tumors of other organs; assay: High oral daily doses of 9-cis retinoic acid in malignant skin diseases and solid tumors; type: in vivo; conditions: high oral daily doses of up to 300 mg
[2] = higher doses; Kurie et al. 1996, Miller et al. 1996; cited from earlier work
chronic hand eczema = assay: Once daily oral 9-cis retinoic acid in patients with chronic hand eczema refractory to conventional treatment
Method: Fifteen patients, eight men and seven women, with chronic hand eczema, refractory to conventional treatment, were treated with 9-cis retinoic acid. Their mean age was 52.3 years, range 21-83. Before the start of 9-cis retinoic acid therapy, their eczema had already lasted for 3 months to 8 years, with a mean of 29 months. […] Therapy consisted in a once daily oral dose of 40 mg 9-cis retinoic acid, given in the form of two soft gelatin capsules containing 20 mg of 9-cis retinoic acid each, with breakfast. 8 patients received in the first week only 20 mg. Mean duration of treatment was 2 months, range 1-3 months. The following lesions and symptoms were recorded on a 0-4 scale (0=none, 1=mild, 2=moderate and 4=severe) and used for evaluating the therapeutic effect: Erythema, papules and vesicles, desquamation, hyperkeratosis, rhagades and pruritus/pain. Side effects, particularly those belonging to the hypervitaminosis A syndrome, were recorded: Headache, dry lips, other mucocutaneous manifestations, muscoskeletal symptoms and laboratory abnormalities.

[3] = tested on: non-malignant skin-disorders, such as acne, psoriasis, lamellar ichthyosis, Darier's disease and lichen planus; conditions: low daily doses of 20 to 60 mg
[4] = tested on: T-helper cell type 1 mediated immune diseases; assay: Low oral daily doses of 9-cis retinoic acid in T-helper cell type 1 mediated immune diseases
[5] = 0-4 scale, individual patient, after 40 mg oral daily for 1-3 months
[6] = 0-4 scale, individual patient, before 40 mg oral daily
[7] = for all 15 patients, 40 mg daily oral
[8] = for the 14 responding patients, 40 mg daily oral
[9] = for the 14 responding patients, 40 mg daily oral, listed as 9-cis retinoic acid
[10] = individual patient, 40 mg oral daily for 1-3 months

CC1=C(/C=C/C(C)=C\C=C\C(C)=C\C(=O)O)C(C)(C)CCC1 [9-cis RA, 9-cis retinoic acid]
Objective tumor regressions [1]: did not lead to major objective tumor regressions | Side effects [1]: marked to severe side effects | Other mucocutaneous manifestations, musculoskeletal or other symptoms [2]: seen with higher doses | Desquamation, after treatment (chronic hand eczema; [5]): 1 (5×) and 0 (6×) and 3/3 and 0/0 (2×) and 0.5 | Erythema, after treatment (chronic hand eczema; [5]): 0 (9×) and 0.5 (2×) and 2 and 0/0 and 2/2 and 1 | Hyperkeratosis, after treatment (chronic hand eczema; [5]): 0 (8×) and 1/1 (2×) and 1 (2×) and 3/3 and 0.5 (2×) | Papules, vesicles, after treatment (chronic hand eczema; [5]): 0 (4×) and 1 (4×) and 0/0 (6×) and 0.5 | Pruritus (+ pain), after treatment (chronic hand eczema; [5]): 0 (6×) and 1 (4×) and 2 (2×) and 7/7 and 0.5 (2×) | Rhagades, after treatment (chronic hand eczema; [5]): 0 (12×) and 2 and 2/2 and 1 | Desquamation, before treatment (chronic hand eczema; [6]): 2 (4×) and 3 (4×) and 1 (4×) and 3/3 and 0/0 (2×) | Erythema, before treatment (chronic hand eczema; [6]): 1 (8×) and 2 (4×) and 4 and 0/0 and 2/2 | Hyperkeratosis, before treatment (chronic hand eczema; [6]): 4 and 3 and 1/1 (2×) and 2 (8×) and 1 (2×) and 3/3 | Papules, vesicles, before treatment (chronic hand eczema; [6]): 3 (3×) and 2 (3×) and 1 (3×) and 0/0 (6×) | Pruritus (+ pain), before treatment (chronic hand eczema; [6]): 2 (3×) and 3 (4×) and 4 (3×) and 5 (4×) and 7/7 | Rhagades, before treatment (chronic hand eczema; [6]): 3 (3×) and 2 (5×) and 1 (5×) and 0.5 and 2/2 | Regression of the various lesions and symptoms (erythema, papules and vesicles etc.) (chronic hand eczema; 40 mg daily oral): 62-100% | Musculoskeletal or other symptoms (chronic hand eczema; 40 mg daily, 15 patients): no musculoskeletal or other symptoms were observed | Overall response of the patients (chronic hand eczema; all fifteen patients, 40 mg daily): responded markedly | Reduction of Lesion/symptom score, in %, mean (chronic hand eczema; [7]): 76.3% | Reduction of Lesion/symptom score, in %, range (chronic hand eczema; [7]): 0-100% | Reduction of Lesion/symptom score, in %, mean (chronic hand eczema; [8]): mean 81.8% | Reduction of Lesion/symptom score, in %, range (chronic hand eczema; [8]): for the 14 responding patients 53-100, % | Reduction of Lesion/symptom score, in %, mean (chronic hand eczema; [9]): 81.3% | Reduction of Lesion/symptom score, in %, range (chronic hand eczema; [9]): 53-100% | Response assessed by doctor (chronic hand eczema; [10]): very good (6×) and good (7×) and no and moderate | Response assessed by patient (chronic hand eczema; [10]): very good (10×) and good (3×) and moderate and no | Patients with response good, assessment by doctor, number (chronic hand eczema; of 15 patients): 7 | Patients with response good, assessment by doctor, percent (chronic hand eczema; of 15 patients): (47%) | Patients with response good, assessment by patient, number (chronic hand eczema; of 15 patients): 3 | Patients with response good, assessment by patient, percent (chronic hand eczema; of 15 patients): (20%) | Patients with response moderate, assessment by doctor, number (chronic hand eczema; of 15 patients): 1 | Patients with response moderate, assessment by doctor, percent (chronic hand eczema; of 15 patients): (6.5%) | Patients with response moderate, assessment by patient, number (chronic hand eczema; of 15 patients): 1 | Patients with response moderate, assessment by patient, percent (chronic hand eczema; of 15 patients): (6.5%) | Patients with response no, assessment by doctor, number (chronic hand eczema; of 15 patients): 1 | Patients with response no, assessment by doctor, percent (chronic hand eczema; of 15 patients): (6.5%) | Patients with response no, assessment by patient, number (chronic hand eczema; of 15 patients): 1 | Patients with response no, assessment by patient, percent (chronic hand eczema; of 15 patients): (6.5%) | Patients with response slight, assessment by doctor, number (chronic hand eczema; of 15 patients): 0 | Patients with response slight, assessment by doctor, percent (chronic hand eczema; of 15 patients): (0%) | Patients with response slight, assessment by patient, number (chronic hand eczema; of 15 patients): 0 | Patients with response slight, assessment by patient, percent (chronic hand eczema; of 15 patients): (0%) | Patients with response very good, assessment by doctor, number (chronic hand eczema; of 15 patients): 6 | Patients with response very good, assessment by doctor, percent (chronic hand eczema; of 15 patients): (40%) | Patients with response very good, assessment by patient, number (chronic hand eczema; of 15 patients): 10 | Patients with response very good, assessment by patient, percent (chronic hand eczema; of 15 patients): (67%) | Response considered very good or good (doctor and patient), number of patients (chronic hand eczema; of 15 patients): 13 | Response considered very good or good (doctor and patient), percent of patients (chronic hand eczema; of 15 patients): 87% | Total Score (0-4 scale), after treatment (chronic hand eczema; sum of lesion/symptom scores, individual patient, after 40 mg oral daily for 1-3 months): 1 (3×) and 2 (4×) and 4.5 (2×) and 3 and 0 (3×) and 8 and 17/17 | Total Score (0-4 scale), before treatment (chronic hand eczema; sum of lesion/symptom scores, individual patient, before 40 mg oral daily): 15 and 14 (2×) and 11 (4×) and 10 (2×) and 17 and 9 (2×) and 17/17 and 13 and 8 | Reduction of score in % (chronic hand eczema; total score, individual patient, 40 mg oral daily for 1-3 months): 93% and 86% and 59% and 61% and 74% and 100% (3×) and 53% and 89% (2×) and 0% and 85% and 82% and 75% | Therapeutic effect on non-malignant skin-disorders [3]: no therapeutic effect | Other toxic signs and symptoms of the hypervitaminosis A syndrome, including the laboratory abnormalities ([4]; daily doses typically 20 to 60 mg, oral): not induced | Efficacy in treatment of T-helper cell type 1 mediated immune diseases ([4]; low daily doses of 20 to 60 mg): efficacious

From patent US6589989B1, “Treatment of cell-mediated immune diseases” (Basilea Pharmaceutica AG, priority 1997, dated 2003)
